Assays:
[1] = system: SOCE, Orai1 and STIM1; conditions: ref [49]; cited from earlier work
[2] = system: CF neutrophils; conditions: ex vivo treatment; ref [12]; cited from earlier work
Excerpt: Since SPLUNC1 is rapidly degraded ...

[3] = system: SOCE in CF neutrophils; conditions: in vitro CFTR potentiation; ref [12]; cited from earlier work
Excerpt: We have previously reported that Ca^2+ signaling is influenced by estrogen in pwCF airways. […] Circulating neutrophil levels fluctuate during the menstrual cycle and sex-specific differences in neutrophil function have previously been described. It may have been that all our female participants had low circulating estrogen levels at time of sample, or that SOCE in neutrophils is less-estrogen sensitive than SOCE in airway epithelia. Importantly, most CF participants were taking CFTR modu ...

[4] = system: inositol monophosphatase 2 (printed IMAP2); conditions: no reference printed with the statement; cited from earlier work
Excerpt: Increased SOCE has previously been described in CF neutrophils and may be causal for CF neutrophil hyperactivity. However, Orai1’s involvement in SOCE in neutrophils has not been extensively studied, and the impact of CFTR modulator therapies on Orai1/SOCE is not well-understood. To globally assess the impact of ETI on CF neutrophils, we first performed a proteomic analysis. This analysis identified multiple proteins that were differentially expressed in CF-derived neutrophils relative to neutrophils from non-CF participants, even though the majority of pwCF in this part of the study ha ...

[5] = system: Ca2+ influx in non-CF neutrophils; assay: Fluo-4 Ca2+ influx across the plasma membrane, non-CF neutrophils; type: cell-based, human; conditions: thapsigargin 1 μM, regardless of genotype
Experimental: (§1) Isolated neutrophils were incubated with peptide or vehicle control for 3 h. For the final hour of treatment, cells were loaded with Fluo-4 direct (Thermofisher) for 45 min at 37°C and 15 min at room temperature as described.
(§2) Fig. 3. ELD607 inhibits SOCE in non-CF and CF neutrophils. (A) and (B) Mean changes in fluo-4 fluorescence as a marker of cytoplasmic Ca^2+ levels in non-CF and CF neutrophils respectively before and after stimulation with 1 μM thapsigargin (Tg). Before stimulation, neutrophils were exposed to vehicle (0.1% DMSO in PBS), 10 μM ELD607 or scrambled peptide (control) for 3 h. N = 10 non-CF and 21 CF donors. Stats show ELD607 vs vehicle or scrambled peptide based on color. (C-F) Isolation of ER Ca^2+ release vs Ca^2+ influx across the plasma membrane in non-CF and CF Neutrophils. Neutrophils were stimulated with thapsigargin (1 μM) in the absence of extracellular Ca^2+ to allow the release of Ca^2+ stores to be measured. Extracellular Ca^2+ was then returned so that extracellular Ca^2+ influx could be measured. (C) Mean fold change in Fluo-4 fluorescence during ER store release in non-CF and CF neutrophils. […] (E) Mean fold change in fluo-4 fluorescence during Ca^2+ influx in non-CF and CF neutrophils. […]
(§3) SOCE has 2 phases: release of Ca^2+ from ER stores and Ca^2+ influx from the extracellular space via Ca^2+ channels such as Orai1. […] Once the stores had emptied, extracellular Ca^2+ was reintroduced and Ca^2+ influx was measured (Fig. 3C–F).
(§4) Fluo-4 Ca^2+ assays. […] For global Ca^2+ measurements, baseline fluorescent readings were made for 2 min (1 read every 30 s) using a Tecan Infinite M1000 plate reader (ex 494 em 516 nm, bandwidth 5 nm) before thapsigargin (Sigma-Aldrich) was added and the change in emission was recorded for 10 min (1 read every 30 s). […] Baseline fluo-4 fluorescence was read for 2 min before cell were stimulated with thapsigargin (Tocris). Reads continued for ~5 min before 1.2 mM Ca^2+ was added to the extracellular solution and SOCE was measured for ~10 mins. For analysis, all fluo-4 fluorescence reads are normalized to baseline.

[6] = system: SOCE/Orai1 in CF peripheral blood neutrophils; assay: Fluo-4 Ca2+ assay, global thapsigargin-stimulated Ca2+ response (SOCE), CF neutrophils; type: cell-based, human; conditions: CF, 1 μM thapsigargin
Experimental: (§5) Neutrophils were immediately isolated by negative selection from deidentified blood samples using an EasySep human neutrophil isolation kit (Stem Cell Technologies) as described. Cytosolic Ca^2+ was measured using Fluo-4 as described. Protein lysate from isolated blood neutrophils was characterized by liquid chromatography with tandem mass spectrometry (LC-MS/MS) as described. Degranulation products in media were quantified by Luminex assay using a custom Bio-Plex human kit (BioRad) per the manufacturer’s protocol […]. Detailed methods for all experiments and measurements are provided in an online data supplement.
as §1
(§6) Fluo-4 Ca^2+ assays. Isolated neutrophils were incubated with peptide or vehicle control for 3 h. For the final hour of treatment, cells were loaded with Fluo-4 direct (Thermofisher) for 45 min at 37°C and 15 min at room temperature. For global Ca^2+ measurements, baseline fluorescent readings were made for 2 min (1 read every 30 s) using a Tecan Infinite M1000 plate reader (ex 494 em 516 nm, bandwidth 5 nm) before thapsigargin (Sigma-Aldrich) was added and the change in emission was recorded for 10 min (1 read every 30 s). To isolate phases of store operated Ca^2+ entry, cells underwent 3 rounds of centrifugation and resuspension in Ca^2+-free Ringer’s solution to remove extracellular Ca^2+. Baseline fluo-4 fluorescence was read for 2 min before cell were stimulated with thapsigargin (Tocris). Reads continued for ~5 min before 1.2 mM Ca^2+ was added to the extracellular solution and SOCE was measured for ~10 mins. For analysis, all fluo-4 fluorescence reads are normalized to baseline.

[7] = system: Ca2+ influx in CF neutrophils; assay: Fluo-4 Ca2+ influx across the plasma membrane, CF neutrophils; type: cell-based, human; conditions: thapsigargin 1 μM, regardless of genotype
Experimental: as §1, §2, §3, §4

[8] = system: SOCE/Orai1 in non-CF peripheral blood neutrophils; assay: Fluo-4 Ca2+ assay, global thapsigargin-stimulated Ca2+ response (SOCE), non-CF neutrophils; type: cell-based, human; conditions: 1 μM thapsigargin
Experimental: as §5, §1, §6

[9] = system: neutrophil elastase; conditions: neutrophil elastase; ref [20]; cited from earlier work

For `NCCOB(c1ccccc1)c1ccccc1` [2-aminoethoxydiphenyl borate], the “inhibition of SOCE, Orai1 and STIM1” value [1] is listed as “broad spectrum SOCE antagonist that also inhibits Orai1 and STIM1”.

In the case of `CC(C)(C)c1cc(C(C)(C)C)c(NC(=O)c2c[nH]c3ccccc3c2=O)cc1O` [Kalydeco], the “bacterial killing by CF neutrophils” value [2] is given as “improved” and the “SOCE and bacterial killing of CF neutrophils” value [3] is given as “sufficient to normalize SOCE and CF neutrophil bacterial killing”.

For `[Li]` [lithium], the “effect of IMPA2 inhibition on inositol phosphate” value [4] is listed as “cellular accumulation of inositol phosphate”.

For `C/C=C(/C)C(=O)O[C@H]1C(C)=C2[C@H]([C@@H]1OC(=O)CCCCCCC)[C@@](C)(OC(C)=O)C[C@H](OC(=O)CCC)[C@@]1(O)[C@H]2OC(=O)[C@@]1(C)O` [thapsigargin], the “Ca2+ influx relative to ER Ca2+ release, non-CF” value [5] was ~ 10 fold, the “rate of activation (slope) of cytoplasmic Ca2+ response” value ([6]; Fluo-4, vs non-CF p<0.001) was 0.085 ± 0.009 and the “increase in cytoplasmic Ca2+ vs non-CF” value ([6]; n = 10 non-CF, 21 CF) was “significantly greater increases in cytoplasmic Ca^2+ than non-CF controls”. For the same molecule, the “Ca2+ influx relative to ER Ca2+ release, CF” value [7] was ~ 10 fold and the “rate of activation (slope) of cytoplasmic Ca2+ response” value ([8]; vs CF p<0.001) was 0.033 ± 0.012.

With “VIRGINDMHVL [scrambled ELD607, scrambled version of ELD607 (negative control peptide)]” the “inhibition of SOCE (global Ca2+ response)” value ([6]; 10 μM peptide, 3 h pre-treatment, Fluo-4, N = 21 donors) was “no effect on SOCE in either group” and the “inhibition of SOCE (global Ca2+ response)” value ([8]; 10 μM peptide, 3 h pre-treatment, N = 10 donors) was “no effect on SOCE in either group”.

B1: SPLUNC1: short palate lung and nasal epithelial clone 1, endogenous protein (protein, UniProt Q9NP55 20-256, looked up)
BPI fold-containing family A …: QFGGLPVPLDQTLPLNVNPALPLSPTGLAGSLTNALSNGLLSGGLLGILENLPLLDILKPGGGTSGGLLGGLLGKVTSVIPGLNNIIDIKVTDPQLLELGLVQSPDGHRLYVTIPLGIKLQVNTPLVGASLLRLAVKLDITAEILAVRDKQERIHLVLGDCTHSPGSLQISLLDGLGPLPIQGLLDSLTGILNKVLPELVQGNVCPLVNEVLRGLDITLVHDIVNMLIHGLQFVIKV
For B1, the “degradation by neutrophil elastase” value [9] is listed as “rapidly degraded by neutrophil elastase”.

From publication PMC12998938, “Neutrophil store-operated Ca^2+ entry: A correctable biomarker of cystic fibrosis lung disease progression” (Journal of cystic fibrosis : official journal of the …, 2025)
